Laboratory results taken from patent US6077871A, “Droloxifene pharmaceutical compositions” (Pfizer Inc., priority 1998, dated 2000).
Where a name gives a salt, the structure may show the parent alone. Read-outs that look alike come from different tables or passages of the source.

Legend:
[1] = Stability of droloxifene out of light / in light-protected solutions; format: physicochemical
Excerpt: The results in Table 2 (below) show a stability enhancement of droloxifene with the inclusion of cyclodextrins. The concentration of cyclodextrin that results in the greatest stabilizing effect depends on the efficiency of the formation of the droloxifene-cyclodextrin inclusion complex, that is, the stability constant, as well as the initial concentration of droloxifene present. […] This stability improvement is further useful for preconstituted aqueous solutions which must have a long practical shelf-life, e.g., 2 years, even if packaged in a partially light-protected package. […] While not wishing to be held to any theory, it is believed that incorporation of droloxifene in the cyclodextrin cavity minimizes a cis-trans isomerization reaction, thus reducing the formation of the isomeric decay product and resulting in an overall stability improvement.

[2] = pH 3
Protocol: The solubility of droloxifene citrate was determined in an aqueous phosphate buffer at pH 3, without and with various levels of cyclodextrins. Solubility testing of droloxifene citrate in solutions of the cydodextrins, SBECD and HPBCD, was conducted using an equilibrium solubility method. The following protocol was employed for the solubility determination.
Separate 0.02 M aqueous buffer solutions of phosphoric acid (H3 PO4) and 0.02 M dibasic sodium phosphate (Na2 HPO4) were prepared by dissolving 2.25 gm and 2.84 gm, respectively, into separate one liter portions of deionized water and stirring with a magnetic stir bar until dissolved. To obtain a pH 3 buffer, the two previous buffers were combined, at an approximate ratio of 2:1 (H3 PO4 buffer:Na2 HPO4 buffer). The final volume of the resulting pH 3 buffer was not critical.
To 25 mL volumetric flasks, weights of either HPBCD or SBECD were added to produce final concentrations of each cyclodextrin shown in Table 1. For example, to prepare a 2% w/v solution of HPBCD in pH 3 phosphate buffer, 0.5 gm of HPBCD was accurately added to a 25 mL volumetric flask. […]
To 5 mL glass vials with screw caps, 3 mL of the desired cyclodextrin solution was added. […] The contents were filtered into a clean screw cap vial through a Millex-HV 0.45 μm filter (Millipore, Bedford, Mass.) and the drug concentration determined by an HPLC method. […]

[3] = pH 3, 30° C., 840 footcandle fluorescent light
Protocol: The stability of droloxifene citrate was determined at pH 3 with various concentrations of SBECD and HPBCD. For this protocol, the 0.02 M sodium phosphate buffer of pH 3 and the cyclodextrin solutions were prepared as for the droloxifene solubility determination described previously. 10 mL of each cyclodextrin solution was added to an 18 mL clear glass vial with screw cap which contained a previously weighed amount of droloxifene citrate. The vials were swirled until dissolution of droloxifene citrate was complete. The concentration of droloxifene citrate ranged from 0.05-0.1 mgA/mL. Concentrations of HPBCD included 0.2, 2, 4, 7 and 10% w/v. Concentrations of SBECD included 0.33 and 3.3% w/v. The vials were stored in an 840 footcandle fluorescent light box at 30° C. The solutions were removed briefly from time to time to allow drug concentration determination using the HPLC method described as for the solubility determination.

| Compound | stability in light-protected solutions ([1]; light-protected solutions with beta-cyclodextrins present) | stability out of light ([1]; out of light vs in light) | solubility with cyclodextrin [2] | Decay Rate Constant ([3]; 0.2% HPBCD) | Time Required for 1% Decay ([3]; 0.2% HPBCD) | Decay Rate Constant ([3]; 0.33% SBECD) | Time Required for 1% Decay ([3]; 0.33% SBECD) | Decay Rate Constant ([3]; 2% HPBCD) | Time Required for 1% Decay ([3]; 2% HPBCD) | Decay Rate Constant ([3]; 3.3% SBECD) | Time Required for 1% Decay ([3]; 3.3% SBECD) | Decay Rate Constant ([3]; no cyclodextrin) | Time Required for 1% Decay ([3]; no cyclodextrin) |
| --- | --- | --- | --- | --- | --- | --- | --- | --- | --- | --- | --- | --- | --- |
| CC/C(=C(/c1ccc(OCCN(C)C)cc1)c1cccc(O)c1)c1ccccc1 [droloxifene, 1-[4'-(2-dimethylaminoethoxy)phenyl]-1-(3'-hydroxyphenyl)-2-phenylbut-1-ene] | an improvement in stability is also observed | significantly more stable out of light | – | – | – | – | – | – | – | – | – | – | – |
| CC/C(=C(/c1ccc(OCCN(C)C)cc1)c1cccc(O)c1)c1ccccc1 [droloxifene citrate] | – | – | enhancement of droloxifene citrate solubility with cyclodextrin | 0.0094 h⁻¹ | 1.1 h | 0.0090 h⁻¹ | 1.1 h | 0.0030 h⁻¹ | 3.3 h | 0.0070 h⁻¹ | 1.4 h | 0.0123 h⁻¹ | 0.8 h |
